From patent US20220112225A1, “ANANDAMIDE COMPOUNDS” (priority 2019, published 2022)

Experiments:
[1] = target: T1, hMfsd2a (Homo sapiens, UniProt Q8NA29); assay: In vitro Mfsd2a transport, thin layer chromatography (TLC) analysis; type: cell-based; conditions: transfected HEK293 cells, 50 μM test compound, 1 hour, iodine and cupric acetate stain
T1 construct: expressed in transfected cells; host or cells: HEK293
T1 sequence (Q8NA29 1-530 isoform Q8NA29-2): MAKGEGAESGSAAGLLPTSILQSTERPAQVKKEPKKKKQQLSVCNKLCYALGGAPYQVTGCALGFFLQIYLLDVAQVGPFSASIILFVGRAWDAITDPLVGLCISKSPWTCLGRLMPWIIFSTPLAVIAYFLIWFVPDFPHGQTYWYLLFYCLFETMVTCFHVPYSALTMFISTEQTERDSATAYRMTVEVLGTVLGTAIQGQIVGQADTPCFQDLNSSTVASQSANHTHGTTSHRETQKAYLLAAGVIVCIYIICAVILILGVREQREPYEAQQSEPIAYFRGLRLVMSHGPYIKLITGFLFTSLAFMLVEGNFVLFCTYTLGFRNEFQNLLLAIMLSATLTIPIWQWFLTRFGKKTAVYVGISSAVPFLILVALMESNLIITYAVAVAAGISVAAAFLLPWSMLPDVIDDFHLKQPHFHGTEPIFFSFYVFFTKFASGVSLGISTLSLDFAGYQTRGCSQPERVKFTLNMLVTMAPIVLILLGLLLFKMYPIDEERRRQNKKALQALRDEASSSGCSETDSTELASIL
Description: (§1) The assay was conducted in a low throughput 6-well format with HEK293 cells prepared and then transfected in duplicate wells with plasmids containing either the wildtype (WT) version of hMfsd2a, the D97A mutant version, or an empty vector as control. Uptake into the ceils was assessed by both thin-layer chromatography (TLC) and ultrahigh performance liquid chromatography hyphenated mass spectrometry.
(§2) HEK293 cells were seeded at 6.25×10^5 per 6-well in 2 mL of DMEM with 10% FBS and 1% penicillin-streptomycin (P/S) media (Sigma) and incubated overnight at 37° C. in 5% CO2. Cells were checked for confluency the next morning. On a per well basis the following lipid mix was generated, 6 μL of Lipofectamine 2000 was added dropwise to 200 μL of OptiMEM, this was left to stand for 5 minutes at room temperature (RT). 1 μg of hMfsd2a WT, D97A or empty plasmid was prepared in 200 μL of OptiMEM as appropriate for each well; the Lipofectamine 2000 in OptiMEM solution was then added dropwise to a total volume of 400 μL (this can be scaled to support the number of wells/plates to be assayed). This transfection preparation was then incubated at RT for 20 minutes. DMEM with 10% FBS and no P/S media was warmed to 37° C., the HEK293 plate media was changed and the cells washed carefully with 1 mL of the warmed DMEM with 10% FBS no P/S media, 1.6 mL of the warmed DMEM with 10% FBS no P/S media was then added to each well. 400 μL of the transfection preparation was then added dropwise to each well as appropriate and the plate was gently swirled in a circular motion. The plate was then incubated overnight at 37° C. in 5% CO2.
(§3) Compound Incubation and Preparation of Analysis Samples Compound stock solutions were prepared in a 12% BSA in PBS solution such that a 40 μL spike into 2 ml, of plain DMEM would yield a concentration of 50 μM of test compound (the compound treated media). Remaining compound stock solution in 12% BSA in PBS was frozen at −20° C. to allow for media stability testing. The HEK293 6-well plate was removed from the incubator and the wells gently rinsed with 1 mL of plain DMEM that had been prewarmed to 37° C. 2 mL of the compound treated media was then added to each well. A 100 μL sample of the compound treated media was sampled to represent a T=0 h sample; 5 μL of this sample (the remainder was reserved and frozen in case of re-analysis being required) was diluted with 45 μL of DMEM and crashed with 50 μL MeCN in a 96-well plate which was sealed and kept on ice. The HEK293 6-well plate was then incubated at 37° C. in 5% CO2 for 1 hour, the plate was then removed from the incubator and a 100 μL sample of media taken from each well to represent a T=1 h sample; 5 μL of this sample (the remainder was reserved and frozen in case of re-analysis being required) was diluted with 45 μL of DMEM and crashed with 50 μL MeCN into the 96-well plate which was re-sealed and stored at −20° C. The remaining media was then removed from the HEK293 6-well plate, the wells were gently rinsed twice with 1 mL of 0.5% BSA in DMEM, the media was then removed and the 6-well plate allowed to dry completely at RT. 1 ml of 3:2 Hexane:Isopropanol (HIP) was added to each well in a fume cupboard and the plate allowed to stand for 30 minutes at RT without shaking. The HIP solution was then transferred to 2 mL Eppendorf tubes, and the process was repeated with a second 1 mL aliquot of HIP and the two aliquots combined. The HIP samples were then dried down under a nitrogen stream.
Silica gel plates were prepared in a fume cupboard by initially drawing a line 1.5 cm from the bottom edge of the plate and then drawing sample lanes with a width of 1 cm and a separation of 0.5 cm between lanes. TLC buffer for phospholipids was prepared as a 31:62:7 solvent mix of Methanol:Chloroform:Ammonium Hydroxide. Plates were pre-run in a humid chamber containing 200 mL of the TLC buffer until the solvent front was 1.5 cm from the plate edge, the plate was then allowed to dry. […]

[2] = target: T1, hMfsd2a; assay: In vitro Mfsd2a transport, UPLC-MS-MS analysis; type: cell-based; conditions: transfected HEK293 cells, 50 μM test compound, 1 hour
Description: as §1, §2, §3
HIP samples prepared as described above were reconstituted in 100 μL of MeCN, vortex mixed and inverted multiple times to ensure all surfaces of the Eppendorf tube were rinsed with the MeCN and finally pulse centrifuged. […]

[3] = In vitro brain homogenate stability, rat; type: in vitro ADME; conditions: for half-life at 1 μM: 37° C., test compound at 1 μM, read-out: Rat t1/2; for Clearance in brain homogenate stability study (in words): one hour incubation, increasing formation of Compound 2
Description: (§4) Fresh rodents brains were snap frozen immediately after collection and the assay performed on the same day. Brains were pre-incubated at 37° C. before being spiked with test compound at 1 μM. Samples were collected across 6 time points (0, 10, 20, 30, 45 and 60 minutes) and crashed in cold acetonitrile containing an internal standard (Leucine Enkephalin) and kept on ice until all samples had been collected. The samples were then shaken and centrifuged. 100 μL of supernatant was transferred to a plate containing 50 μL of MilliQ water and mixed. These plates were analyzed by LC-MS/MS over the 6 time points, where the percentage of test compound remaining was calculated using the peak area of the initial timepoint (T=0 minutes) as 100%. The natural log of the percentage remaining was then calculated. The natural log of the percentage remaining versus time (minutes) was plotted on a graph and the gradient of this graph was used to calculate the elimination rate constant (K), The half-life (t1/2) of test compound was calculated using the natural log of 2 divided by the elimination rate constant. The percentage of Compound 2 formed is reported below in Tables 4-6. FIGS. 9A-9F show results of the brain homogenate stability conducted with representative compounds of the Examples.

[4] = In vitro brain homogenate stability, mouse; type: in vitro ADME; conditions: for half-life at 1 μM: 37° C., test compound at 1 μM, read-out: Mouse t1/2; for Clearance in brain homogenate stability study (in words): one hour incubation, increasing formation of Compound 2
Description: as §4

[5] = PO JVC rat terminal PK study at 20 mg/kg (tissue distribution); type: in vivo; conditions: rat brain after Compound 3 at 20 mg/kg PO, before the more sensitive method
Description: Compound 3 was orally dosed at 20 mg/kg to a group of nine, jugular vein cannulated, individually housed male Sprague Dawley rats that were fasted overnight and fed 4 h post-dose to assess its tissue distribution profile. Dosing was performed with 5 mL/kg dosing volumes with 5% DMSO, 95% water used as a dosing vehicle. Terminal blood samples (>230 μL) were taken from groups of 3 animals at each of 3 time-points post dose (1 h, 2 h, and 4 h) by cardiac puncture under CO2 into heparinised Eppendorf tubes (containing 5 μL heparin) on ice containing an equal quantity of water. Two 100 μL aliquots were then placed in duplicate 96 well plates on dry ice. Immediately after blood sampling, brain and eye pair samples were excised, weighed, rinsed, blotted, and snap frozen in liquid N2. Samples were stored in the freezer at −20° C. until bioanalysis.
Tissue samples were weighed and a volume of water 3 times the mass added to samples before homogenization. In the case of eyeballs the lens could not be homogenized, but all other tissues homogenized. The resulting data (tissue distribution parameters) are shown below in Table 2.

[6] = Brain homogenate re-analysis for Compound 2 after PO Compound 3 at 20 mg/kg; type: in vivo; conditions: after dosing Compound 3
Description: Re-analysis of the brain tissues harvested above (see Example 4) was conducted according to the following procedures and the data are shown in Table 3. • 1. 100 μL of brain homogenate was transferred to a 2 mL square matrix deep well plate, • 2. 300 μL acetonitrile (ACN) containing IS was dispensed on to the samples and mixed on a shaker. • 3. The samples were centrifuged for 15 min at 3500 rpm. • 4. 300 μL supernatant was transferred in to a fresh 2 mL square matrix deep well plate. • 5. Samples were concentrated using nitrogen then reconstituted in 80 μL of 50:50 ACN:MilliQ water and shaken on a plate shaker. • 6. Samples were then analyzed by LC-MS-MS.

CCCCC/C=C\C/C=C\C/C=C\C/C=C\CCCC(=O)NCCOC(=O)OCCCOP(=O)([O-])OCC[N+](C)(C)C [Compound 7, 3-(((2-((5Z,8Z,11Z,14Z)-icosa-5,8,11,14-tetraenamido)ethoxy)carbonyl)oxy)propyl (2-(trimethylammonio)ethyl) phosphate]
Transport via Mfsd2a: TLC band intensity in WT cells compared with D97A mutant Mfsd2a and/or empty vector cells [1]: transported via Mfsd2a | Transport via Mfsd2a: concentration in HIP samples from WT cells compared with D97A mutant Mfsd2a and/or empty vector cells [2]: transported via Mfsd2a

CCCCC/C=C\C/C=C\C/C=C\C/C=C\CCCC(=O)NCCOP(=O)(O)OCCN [Compound 4, 2-ammonioethyl (2-((5Z,8Z,11Z,14Z)-icosa-5,8,11,14-tetraenamido)ethyl) phosphate]
Transport via Mfsd2a: TLC band intensity in WT cells compared with D97A mutant Mfsd2a and/or empty vector cells [1]: transported via Mfsd2a | Transport via Mfsd2a: concentration in HIP samples from WT cells compared with D97A mutant Mfsd2a and/or empty vector cells [2]: transported via Mfsd2a | half-life at 1 μM [3]: 1.27 h | Clearance in brain homogenate stability study (in words) [3]: demonstrated a level of clearance | half-life at 1 μM [4]: 2 h | Clearance in brain homogenate stability study (in words) [4]: demonstrated a level of clearance

CCCCC/C=C\C/C=C\C/C=C\C/C=C\CCCC(=O)NOC(C)(O)COP(=O)([O-])OCC[N+](C)(C)C (stereo not shown) [Compound 20, 2-hydroxy-2-(((5Z,8Z,11Z,14Z)-icosa-5,8,11,14-tetraenamido)oxy)propyl (2-(trimethylammonio)ethyl) phosphate]
Transport via Mfsd2a: TLC band intensity in WT cells compared with D97A mutant Mfsd2a and/or empty vector cells [1]: cannot be confirmed if the compound is transported via Mfsd2a | Transport via Mfsd2a: concentration in HIP samples from WT cells compared with D97A mutant Mfsd2a and/or empty vector cells [2]: transported via Mfsd2a

CCCCC/C=C\C/C=C\C/C=C\C/C=C\CCCC(=O)NCCOP(=O)(O)OCC(N)C(=O)O (stereo not shown) [Compound 5, 2-ammonio-2-carboxyethyl (2-((5Z,8Z,11Z,14Z)-icosa-5,8,11,14-tetraenamido)ethyl) phosphate]
Transport via Mfsd2a: TLC band intensity in WT cells compared with D97A mutant Mfsd2a and/or empty vector cells [1]: transported via Mfsd2a | Transport via Mfsd2a: concentration in HIP samples from WT cells compared with D97A mutant Mfsd2a and/or empty vector cells [2]: cannot be confirmed if the compound is transported via Mfsd2a | half-life at 1 μM [3]: 2.1 h | Clearance in brain homogenate stability study (in words) [3]: demonstrated a level of clearance | half-life at 1 μM [4]: 4.3 h | Clearance in brain homogenate stability study (in words) [4]: demonstrated a level of clearance

CCCCC/C=C\C/C=C\C/C=C\C/C=C\CCCC(=O)NCCOC(=O)OCCOP(=O)([O-])OCC[N+](C)(C)C [Compound 6, 2-(((2-((5Z,8Z,11Z,14Z)-icosa-5,8,11,14-tetraenamido)ethoxy)carbonyl)oxy)ethyl (2-(trimethylammonio)ethyl) phosphate]
Transport via Mfsd2a: TLC band intensity in WT cells compared with D97A mutant Mfsd2a and/or empty vector cells [1]: transported via Mfsd2a | Transport via Mfsd2a: concentration in HIP samples from WT cells compared with D97A mutant Mfsd2a and/or empty vector cells [2]: transported via Mfsd2a

CCCCC/C=C\C/C=C\C/C=C\C/C=C\CCCC(=O)NCCOC(=O)NCCOP(=O)([O-])OCC[N+](C)(C)C [Compound 8, 2-(((2-((5Z,8Z,11Z,14Z)-icosa-5,8,11,14-tetraenamido)ethoxy)carbonyl)amino)ethyl (2-(trimethylammonio)ethyl) phosphate]
Transport via Mfsd2a: TLC band intensity in WT cells compared with D97A mutant Mfsd2a and/or empty vector cells [1]: transported via Mfsd2a | Transport via Mfsd2a: concentration in HIP samples from WT cells compared with D97A mutant Mfsd2a and/or empty vector cells [2]: transported via Mfsd2a

CCCCC/C=C\C/C=C\C/C=C\C/C=C\CCCC(=O)NCCO [Compound 2, (5Z,8Z,11Z,14Z)—N-(2-hydroxyethyl)icosa-5,8,11,14-tetraenamide, reference compound]
Detection of Compound 2 in brain tissues, first analysis [5]: not detected above the lower limit of quantification | Detection of Compound 2 in the brain, in-vivo rat CNS penetration data using Compound 3 [6]: detected in the brain
